A short description of this test: 1O2 production in solutions, SOSG indicator, X-ray irradiation. Conditions: either with or without X-ray. The method, then: 1 mL of 0.05 mg M-SAO@SiO2/mL was added in a quartz cuvette (equilibrated with air at room temperature) containing 1 μM of SOSG. For controls, SAO, MC540, and water were analyzed. The solutions were irradiated by X-ray (at an irradiance of 1 Sv/h for 20 min, with a 1-min intermission after each 5-min irradiation cycle. The fluorescence signals (ex/em: 504/525 nm) were measured on a Hitachi F-7000 fluorescence spectrophotometer.
There is a significant overlap between the XEOL of SAO and the excitation wavelength of MC540 (FIG. 9A). Therefore, the ability of M-SAO@SiO2 nanoparticles irradiated by X-ray to relay energy in the form of visible photons to MC540 and as a result, producing ^1O2 was investigated. A common ^1O2 indicator, singlet oxygen sensor green (SOSG, Invitrogen) was used to investigate this effect. SOSG is a fluorescent compound which undergoes a structural change in the presence of ^1O2. The process is accompanied by an increase of fluorescence (ex/em: 504/525 nm). Therefore, by measuring the fluorescence change, the ^1O2 generation in solutions or cells can be monitored. Using SOSG, ^1O2 generation with a M-SAO@SiO2 nanoparticle solution (50 μg/mL) under X-ray irradiation was studied (1 Sv/h, FIG. 9B). Compared to the background, the intensity of 525 nm fluorescence was increased by 8, 25, 35, and 45% after 5, 10, 15, and 20 min X-ray irradiation, respectively (FIG. 9B).

Consider `CCCCN1C(=O)C(=C/C=C/C=C2\Oc3ccccc3N2CCCS(=O)(=O)[O-])C(=O)N(CCCC)C1=S.[Na+]` [MC540, merocyanine 540], for which the “increase in fluorescence (1O2, SOSG)” value is given as “minimal increase in fluorescence”.

The record behind these values is US10646570B2, “Induced photodynamic therapy using nanoparticle scintillators as transducers” (UNIVERSITY OF GEORGIA RESEARCH FOUNDATION, INC., priority 2014, dated 2020).
